In patent publication US20200338028A1, “BENZENESULFONAMIDE DERIVATIVES AND METHOD FOR MODULATING LIPID RAFT” (Gongwin Biopharm Co., Ltd., priority 2017, published 2020):
Entries after “also recorded” stand apart in the source; their conditions may differ.

System: PC-3-derived cancer xenografts
Assay: in vivo anti-tumor xenograft model
Set-up: species or system nude mice
Protocol: In vivo anti-tumor study was performed as follows. PC-3-derived cancer xenografts in nude mice were used as an in vivo model. The nude mice were subcutaneously injected with PC-3 cells (10^7 cell/mouse). The tumors were measured every day. When the tumors reached a volume of 100 mm^3, the mice were divided into two groups (n=8-10), and compound treatment was initiated. p-TSA was dissolved in 15% 1-methyl-2-pyrrolidone (NMP). Vehicle (15% NMP) or p-TSA was given intraperitoneally every other day. The length (1) and width (w) of the tumor were measured, and tumor volume was calculated as lw^2/2. The protocols of the in vivo study were approved by the Animal Care and Use Committee at National Taiwan University. All animal procedures and protocols were approved by AAALAC-accredited facility. Data were presented as mean±standard error of the mean (SEM) for the indicated number of separate experiments. The statistical analysis was performed using one way analysis of variance (ANOVA) for multiple sample sets. Single comparisons of appropriate groups were done with Student's t-test. P-values less than 0.05 are statistically considered significant.
The tumor xenograft in nude mice models after subcutaneously inoculated PC-3 cells was used to conduct in vivo efficacy evaluation of p-TSA. The operator was fully blinded to the experimental treatment. The initial intraperitoneal injection of 75 mg/kg p-TSA was given when the tumor reached a size of 100 mm^3 (p-TSA group 121±40 mm^3 v.s. control group 101±48 mm^3). First, the tumor growth inhibition treatment/control (T/C) ratio was used to quantify the treatment effect of p-TSA in the mouse xenograft model.

Cc1ccc(S(N)(=O)=O)cc1 [p-TSA, para-toluenesulfonamide]
median tumor size (75 mg/kg intraperitoneally): 403 mm^3 | tumor growth inhibition treatment/control (T/C) ratio (75 mg/kg intraperitoneally every other day, end of treatment, FIG. 7A): 0.44 | tumor growth rate (75 mg/kg intraperitoneally, FIG. 7B): 16.8 mm^3/day | loss of body weight versus control group (75 mg/kg intraperitoneally, FIG. 7C): no significant between-group difference | inhibition by median tumor size (75 mg/kg intraperitoneally, versus 765 mm^3 in the control group): 47% | inhibition of tumor growth rate (75 mg/kg intraperitoneally, versus control group 37.8 mm^3/day): 56% | day on which the group reached a 20% loss of body weight (75 mg/kg intraperitoneally, control group 12th day): 22 days | p-Akt expression in tumors (six randomly selected tumors, FIG. 7D, listed as PTS): significant inhibitory effect; also recorded: significantly inhibited
